Laboratory results published in patent publication US6989375B2, “Enhanced expression of transgenes” (priority 1996, dated 2006).

Tests used:
[1] = tested on: primary normal human bronchial epithelial (NHBE) cells; experiment: β-gal expression by X-gal staining after Ad/CMV/β-gal infection of CDDP-treated normal cells; type: cell-based; details: CDDP 0.062 μg/ml; 90% confluent
Experimental: (§1) The human non-small cell lung carcinoma cell lines H1299 and H460 were grown in RPMI-1640 medium supplemented with 5% heat-inactivated fetal calf serum (FCS), 10 mM glutamine, 100 units/ml of penicillin, 100 μg/ml of streptomycin and 0.25 μg/ml of amphotericin B. Human non-small cell lung carcinoma cell lines H358, H226br, and the cervical cancer cell line SiHa were maintained in complete RPMI-1640 medium supplemented with 10% FCS. The cell line A549 (human, non-small cell lung carcinoma) was grown in Ham's F12 nutrient mixture solution (Gibco BRL, Gaithersburg, Md.) similarly supplemented with antibiotics, glutamine and 10% FCS.
(§2) Gene Delivery Protocol: In vitro gene delivery was performed by incubating cells in six-well plates (Falcon Plastics, Lincoln Park, N.J.) for two hours with Adv/CMV/β-gal in appropriate medium supplemented with 2% FCS. The multiplicity of infection (MOI: number of viral particles per target cell) was based on cell counts of untreated wells. Fresh, complete medium with the appropriate concentration of FCS was then added to the wells at the end of the infection period and cells were then incubated for 20 hours at 37° C., 5% CO2. […] The transduction efficiency by Adv/CMV/β-gal was determined by the percentage of positive stained cells (blue) for β-galactosidase activity (1000 cells counted per well).

A549 = experiment: β-gal expression by X-gal staining after Ad/CMV/β-gal infection of CDDP-treated cells; type: cell-based, human; details: gene transfer 48 hours after exposure to 0.062 μg/ml of CDDP; MOI=10
Experimental: as §1, §2

H1299 cells [2] = experiment: Quantitation of β-gal gene expression by ONPG assay at increasing MOI; type: cell-based, human; details: for Enhancement index: CDDP 0.062 μg/ml×24 h; for β-gal activity (ONPG): CDDP = cells treated 0.062 μg/ml×24 h, infected 2 days later, Ad/CMV/β-gal = control cells without CDDP
Experimental: (§3) Quantitation of β-gal Gene Expression: Adenoviral infection was performed 2 days after exposure to CDDP (0.062 μg/ml×24 hours), with cell extracts being obtained 24 hours later and quantitatively assayed for the expression of the β-galactosidase gene using O-nitrophenyl β-d-galactoside (ONPG) as a substrate (MacGregor et al., 1987). The magnitude of CDDP-induced enhancement of gene expression at a given MOI was determined by calculating the enhancement index: [formula] In Vivo CDDP-Induced Enhancement of β-gal Gene Expression
(§4) To determine if prior incubation of target cells with CDDP would result in an increase in the ability of cells to take up gene-delivering vectors or an increase in the expression of successfully delivered genes, β-gal gene expression was quantitated in H1299 and H460 cell lines treated with CDDP and then infected with Ad/CMV/β-gal at increasing MOI's. If CDDP mediates an enhancement of adenovirus uptake as compared to non-treated controls, then there should be a proportional increase in enhancement indices with increasing MOI's. […] Similarly, β-gal gene expression in CDDP-treated H460 cells increased from 0.28±0.06 to 12.2±2.1 U/mg protein, as compared to β-gal gene expression in control H460 cells of 0.056±0.016 to 7.6±1.8 U/mg protein. The enhancement indices in H460 cells, therefore, decreased from a value of 5 at an MOI of 5, to a value of 1.6 at an MOI of 100 (FIG. 2B). This observation implies that CDDP induces an increase in the expression of successfully delivered genes and not an increase in adenovirus uptake.

H460 cells = experiment: as above; type: cell-based, human; details: for β-gal gene expression (ONPG): CDDP = treated cells, Ad/CMV/β-gal = control cells without CDDP
Experimental: as §3, §4

H1299 cells [3] = experiment: β-gal expression after gene delivery with Ad/PLL/DNA complex or lipofectamine in CDDP-treated cells; type: cell-based, human; details: 48 hrs after CDDP removal
Experimental: Gene Transfer Vectors: The recombinant adenovirus carrying the Escherichia coli β-galactosidase gene under the control of the human cytomegalovirus enhancer/promotor (Ad/CMV/β-gal) or the replication defective adenovirus were propagated on 293 cells and purified and stored using techniques previously reported (Nguyen et al., 1996). Viral titer was determined by UV spectrophotometric analysis (Nguyen et al., 1996a; 1996b). To determine if the CDDP-induced enhancement of gene expression would be dependent on the method of gene delivery, two other gene delivery systems were used: the Ad/PLL/DNA complex (Nguyen et al., 1996a; 1996b) and cationic liposomes (Lipofectamine, Gibco BRL). CDDP (0.062 μg/ml)-treated H1299 cells were incubated with either gene delivery system carrying a plasmid that contained the β-gal gene under the control of the CMV enhancer/promotor (CMV/β-gal) 48 hours after drug removal. Plasmid DNA was isolated by the alkaline lysis technique and purified by using Qiagen DNA purification kits (Qiagen, Chatsworth, Calif.). Plasmid containing liposome preparations and gene transfer were performed according to the manufacturer's protocol. The conjugated Ad/PLL/DNA complex was constructed and used to deliver the β-gal gene to H1299 and H460 cells as described elsewhere (Nguyen et al., 1996a; 1996b).

[4] = tested on: primary human foreskin fibroblasts; details: 16 to 20 hours exposure to high concentrations, followed immediately by transduction; cited from earlier work

N.N.[Cl][Pt][Cl] [CDDP, cis-dichlorodimminocisplatin]
Enhancement of gene expression in stationary normal cells [1]: failed to enhance gene expression | Magnitude of maximal enhancement of transgene expression (FIG. 4B) (A549): 1.6 fold | Enhancement index (H1299 cells [2]; MOI 5): 3 | β-gal activity (ONPG) (H1299 cells [2]; MOI 5): 2.2±0.40 U/mg protein | Enhancement index (H1299 cells [2]; MOI 100): 2.5 | β-gal activity (ONPG) (H1299 cells [2]; MOI 100): 42.0±2.6 U/mg protein | β-gal gene expression (ONPG) (H460 cells; MOI 5): 0.28±0.06 U/mg protein | β-gal gene expression (ONPG) (H460 cells; MOI 100): 12.2±2.1 U/mg protein | Enhancement index (H460 cells; MOI of 5): 5 | Enhancement index (H460 cells; MOI of 100): 1.6 | β-gal gene expressing cells compared with adenovirus-mediated gene transfer (H1299 cells [3]; cationic phospholipid lipofectamine carrying CMV/β-gal plasmid): same magnitude | β-gal gene expressing cells compared with adenovirus-mediated gene transfer (H1299 cells [3]; conjugated Ad/PLL/DNA complex carrying CMV/β-gal plasmid): same magnitude | Susceptibility to AAV transduction [4]: more susceptible to transduction
